Experimental findings from PMC7864055, “Biochemical and biophysical analyses of hypoxia sensing prolyl hydroxylases from Dictyostelium discoideum and Toxoplasma gondii” (The Journal of Biological Chemistry, 2021) are described below.

The target of assay [1] is T1, TgPhyA (Toxoplasma gondii, UniProt A0A7J6K353).
T1 construct: gene TGRH88_076950; full-length, recombinant; purification in Supporting information
T1 sequence (A0A7J6K353 1-271): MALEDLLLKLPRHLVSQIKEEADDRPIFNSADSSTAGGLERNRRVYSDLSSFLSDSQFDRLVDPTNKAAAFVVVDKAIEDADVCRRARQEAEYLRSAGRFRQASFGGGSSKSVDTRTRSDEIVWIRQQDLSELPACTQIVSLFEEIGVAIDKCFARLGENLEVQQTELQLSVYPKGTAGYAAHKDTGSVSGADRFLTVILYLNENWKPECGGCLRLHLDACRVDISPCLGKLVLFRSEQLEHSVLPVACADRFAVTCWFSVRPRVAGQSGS
Briefly: differential scanning fluorimetry, SYPRO Orange. The class given is binding. As to conditions: with metal (Ni(II)); 25-80 °C. A general note: Differential scanning fluorimetry follows unfolding on heating by fluorescence.

The next assay concerns the target T2, DdPhyA (Dictyostelium discoideum, UniProt Q86KR9).
T2 construct: gene phyA; full-length aa 1-284, E. coli BL21 Gold (DE3), N-terminal His6-ZBasic tag cleaved by TEV, EDTA-treated to remove metal
Briefly: differential scanning fluorimetry, SYPRO Orange. It counts as binding. As to conditions: with metal (Ni(II)); 25-80 °C; construct (full-length or truncated) not told in main text.

A further assay deals with T3, DdPhyA(60-284) (Dictyostelium discoideum, UniProt Q86KR9).
T3 construct: gene phyA; catalytic domain residues 60-284 (once printed 60-286), E. coli, His6-ZBasic tag cleaved; 3 molecules per asymmetric unit; Ni(II) substituting for Fe(II)
T3 sequence (Q86KR9 60-284): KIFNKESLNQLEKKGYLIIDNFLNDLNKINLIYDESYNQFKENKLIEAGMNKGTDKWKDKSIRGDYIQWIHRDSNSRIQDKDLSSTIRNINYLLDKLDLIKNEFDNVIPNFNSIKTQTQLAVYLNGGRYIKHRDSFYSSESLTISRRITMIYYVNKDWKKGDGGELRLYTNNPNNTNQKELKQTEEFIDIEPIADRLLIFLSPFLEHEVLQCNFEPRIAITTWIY
Briefly: X-ray crystallography, […] Å. It counts as binding. The note with it: Ni(II) in place of Fe(II); active site, bidentate to metal, no Skp1 substrate. The text has this:
The C-5 carboxylate of NOG is bound

Assay [2] has as its target T1, TgPhyA. Briefly: 1H NMR of 2OG conversion to succinate. The note with it: uncoupled (no Skp1); enzyme 20 μM, 2OG 500 μM, Fe(II) 50 μM, ascorbate 1 mM, Tris-D11 pH 7.5, room temperature. It counts as biochemical.

Molecules are shown by their SMILES.

T2 sequence (Q86KR9 whole entry, the tested form may be a part): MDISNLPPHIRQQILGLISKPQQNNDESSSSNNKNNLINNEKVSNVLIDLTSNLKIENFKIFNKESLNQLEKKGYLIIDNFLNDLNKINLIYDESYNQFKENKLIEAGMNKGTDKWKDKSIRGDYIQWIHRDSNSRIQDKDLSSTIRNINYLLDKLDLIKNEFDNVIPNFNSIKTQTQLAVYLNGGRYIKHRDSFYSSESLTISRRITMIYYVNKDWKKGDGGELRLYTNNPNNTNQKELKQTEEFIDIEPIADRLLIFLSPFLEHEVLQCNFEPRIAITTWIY

With `O=C(O)CNC(=O)C(=O)O` [NOG], the Tm shift entry at TgPhyA [1] was “Ni(II) ions and N-oxalylglycine (a stable 2OG analog, Fig. S9) stabilize the enzymes”; on DdPhyA it was “Ni(II) ions and N-oxalylglycine (a stable 2OG analog, Fig. S9) stabilize the enzymes”. For the same compound, the “X-ray crystallography, 2.02 Å” value at DdPhyA(60-284) is “the latter in a bidentate manner. The C-5 carboxylate of NOG is bound”.
Take `O=C(O)CCC(=O)C(=O)O` [2OG]: the 2OG turnover result on TgPhyA [2] was “TgPhyA exhibited substantial uncoupled 2OG turnover in the absence of substrate”.
